Assay results taken from US7087622B2, “Pyridone compounds as inhibitors of bacterial type III protein secreation systems” (priority 2004, dated 2006).

Key:
Format in all cases: cell-based
[1] = system: SPI1 type III protein secretion system (SipB secretion); test: Secondary assay: Type III-dependent protein secretion of the SipB polypeptide by S. enterica (immunoblot); conditions: Salmonella enterica, read-out: SipB IC50(uM)
Description: Secondary assay: Type III-dependent protein secretion of the SipB polypeptide by S. enterica. The SipB protein of S. enterica is another effector of the SPI1 type III protein secretion system from S. enterica. In this cell-based procedure, the Type III-dependent secretion of SipB from the bacterial cytoplasm to the extracellular medium was measured through its reactivity with a cognate mouse monoclonal.
Salmonella enterica cells growing either in the presence or in the absence of inhibitors are induced for the production of SipB. Following an established period of growth the cells are sedimented and the amount of SipB present in the supernatant is quantified with a scanning imager following application of immunoblot techniques. Detection may employ an anti-SipB mouse monoclonal antibody (e.g., obtained from Jorge Galan, SUNY at Stony Brook, N.Y.) followed by treatment with commercially available sheep anti-mouse polyclonal antibody conjugated with horseradish peroxidase. Thereafter the membrane is treated with a peroxidase chemiluminescent substrate and exposed to film for an appropriate exposure time. Inhibition may be measured relative to untreated controls.

[2] = system: type III protein secretion system of P. aeruginosa PA103 (ExoU secretion); test: Tertiary assay: Type III-dependent secretion of ExoU by P. aeruginosa PA103 (SDS-PAGE band quantitation); conditions: Pseudomonas aeruginosa, ExoU secreted into extracellular medium
Text: Tertiary assay: inhibition of Type III protein secretion of effectors from a Pseudomonas aeruginosa system. Type III protein secretion is used by P. aeruginosa to secrete several essential virulence determinants. One effector of the type III protein secretion system of P. aeruginosa PA103 is the virulence determinants ExoU.
The amount of Type III-dependent secretion of ExoU by P. aeruginosa PA103 can be determined in a cell-based assay by quantification of the 73.9 kDa ExoU protein secreted into the extracellular medium. Such quantitation can be achieved by growing strain PA103 in a deferrated medium in the presence of nitrilotriacetic acid (an inducer of Type III protein secretion in P. aeruginosa) and either in the presence or absence of putative inhibitors. After a prolonged growth period, the cells are sedimented and the supernatants concentrated by ammonium sulfate precipitation. The proteins in the resuspended pellets are separated by electrophoresis on SDS-polyacrylamide gels. After staining gels with Colloidal Blue™, the 73.9 kDa ExoU band is quantitated by scanning through an imager. The effects of inhibitors on the intensity of the ExoU band may be measured relative to that of untreated controls.

[3] = system: SPI1 type III protein secretion system (SopE-Bla secretion); test: Primary assay: Type III protein secretion of the chimeric SopE-Bla polypeptide by Salmonella enterica (nitrocefin hydrolysis); conditions: read-out: SopE IC50(uM)
Text: Primary assay: Type III protein secretion of the chimeric SopÉ-Bla polypeptide by Salmonella enterica. This procedure is a cell-based assay that measures the type III-dependent secretion by Salmonella enterica of a plasmid-encoded chimeric polypeptide whose synthesis can be regulated, and which is endowed with an enzymatic activity that can be monitored calorimetrically by hydrolysis of a substrate that is unable to penetrate into the bacterial cytoplasm within the time constraints of the reaction. Thus, the colorimetric reaction is not influenced by SopÉ-Bla polypeptide in the bacterial cytoplasm. Instead, it effectively measures the amount of polypeptide that has been secreted from the S. enterica cytoplasm to the extracellular medium via type III system protein secretion.
The SopÉ-Bla recombinant polypeptide consists of two functionally distinct domains spliced together. The N-terminus domain is encoded by a polynucleotide region specifying the signal for type III secretion of the SopE polypeptide of S. enterica, an effector of the SPI1 type III protein secretion system. The C-terminus domain of SopÉ-Bla consists of a 263 amino acid peptide sequence that corresponds to the TEM-1 β-lactamase expressed by plasmid pBR322 but without its N-terminal signal sequence. The TEM-1 β-lactamase part of the SopÉ-Bla chimeric polypeptide is used as a reporter enzyme. It is capable of hydrolyzing nitrocefin resulting in a product whose accumulation can be monitored by colorimetric detection. The secretion of the SopÉ-Bla chimeric polypeptide from the cytoplasm to the extracellular medium is dependent on type III protein secretion.
For this procedure, cells grown under conditions known to favor a functional SPI1 secretion system are induced for expression of the SopÉ-Bla protein and grown either in the presence or in the absence of putative inhibitors for determined time. Nitrocefin is then added to the various cultures and its hydrolysis are used for quantitation. An inhibitor of Type III protein secretion is generally a compound that reduces the signal of the enzymatic reaction by decreasing the amount of SopÉ-Bla secreted into the extracellular medium.

Compound	IC50 [1]	IC50 [2]	IC50 [3]
CN(C)c1ccc(-c2cc(NC(=O)c3ccc(-c4ccccc4)cc3)c(=O)n(C(Cc3ccc(Cl)cc3)C(=O)O)c2)cc1 (stereo not drawn) [Compound 40, 2-[3-[(Biphenyl-4-carbonyl)amino]-5-(4-dimethylaminophenyl)-2-oxo-2H-pyridin-1-yl]-3-(4-chlorophenyl)propionic acid]	10.2 µM	56.4 µM	2.8 µM
COc1ccc(-c2cc(NC(=O)c3ccc(-c4ccccc4)cc3)c(=O)n(C(Cc3ccc(Cl)cc3)C(=O)O)c2)cc1OC (stereo not drawn) [Compound 41, 2-[3-[(Biphenyl-4-carbonyl)amino]-5-(3,4-dimethoxyphenyl)-2-oxo-2H-pyridin-1-yl]-3-(4-chlorophenyl)propionic acid]	15.9 µM	67.4 µM	3.2 µM
O=C(Nc1cc(-c2ccc3ccccc3c2)cn(C(Cc2ccc(Cl)cc2)C(=O)O)c1=O)c1ccc(-c2ccccc2)cc1 (stereo not drawn) [Compound 42, 2-{3-[(Biphenyl-4-carbonyl)amino]-5-naphthalen-2-yl-2-oxo-2H-pyridin-1-yl}-3-(4-chlorophenyl)propionic acid]	76.2 µM	41.3 µM	1.1 µM
O=C(Nc1cc(-c2ccc3[nH]ccc3c2)cn(C(Cc2ccc(Cl)cc2)C(=O)O)c1=O)c1ccc(-c2ccccc2)cc1 (stereo not drawn) [Compound 43, 2-[3-[(Biphenyl-4-carbonyl)amino]-5-(1H-indol-5-yl)-2-oxo-2H-pyridin-1-yl]-3-(4-chlorophenyl)propionic acid]	> 100 µM	28 µM	1.9 µM
O=C(Nc1cc(-c2ccsc2)cn(C(Cc2ccc(Cl)cc2)C(=O)O)c1=O)c1ccc(-c2ccccc2)cc1 (stereo not drawn) [Compound 44, 2-{3-[(Biphenyl-4-carbonyl)amino]-2-oxo-5-thiophen-3-yl-2H-pyridin-1-yl}-3-(4-chlorophenyl)propionic acid]	> 100 µM	> 100 µM	2.8 µM
O=C(Nc1cc(-c2ccoc2)cn(C(Cc2ccc(Cl)cc2)C(=O)O)c1=O)c1ccc(-c2ccccc2)cc1 (stereo not drawn) [Compound 45, 2-{3-[(Biphenyl-4-carbonyl)amino]-5-furan-3-yl-2-oxo-2H-pyridin-1-yl}-3-(4-chlorophenyl)propionic acid]	> 100 µM	49.4 µM	4 µM
O=C(Nc1cc(-c2ccc(-c3ccccc3)cc2)cn(C(Cc2ccc(Cl)cc2)C(=O)O)c1=O)c1ccc(-c2ccccc2)cc1 (stereo not drawn) [Compound 47, 2-{3-[(Biphenyl-4-carbonyl)amino]-5-biphenyl-4-yl-2-oxo-2H-pyridin-1-yl}-3-(4-chlorophenyl)propionic acid]	55 µM	39.4 µM	1.4 µM
O=C(Nc1cc(-c2ccc(Oc3ccccc3)cc2)cn(C(Cc2ccc(Cl)cc2)C(=O)O)c1=O)c1ccc(-c2ccccc2)cc1 (stereo not drawn) [Compound 48, 2-[3-[(Biphenyl-4-carbonyl)amino]-2-oxo-5-(4-phenoxyphenyl)-2H-pyridin-1-yl]-3-(4-chlorophenyl)propionic acid]	35 µM	33.2 µM	1.2 µM
O=C(Nc1cc(-c2ccccc2Oc2ccccc2)cn(C(Cc2ccc(Cl)cc2)C(=O)O)c1=O)c1ccc(-c2ccccc2)cc1 (stereo not drawn) [Compound 49, 2-[3-[(Biphenyl-4-carbonyl)amino]-2-oxo-5-(2-phenoxyphenyl)-2H-pyridin-1-yl]-3-(4-chlorophenyl)propionic acid]	48 µM	46.3 µM	< 0.8 µM
O=C(Nc1cc(-c2cccs2)cn(C(Cc2ccc(Cl)cc2)C(=O)O)c1=O)c1ccc(-c2ccccc2)cc1 (stereo not drawn) [Compound 50, 2-{3-[(Biphenyl-4-carbonyl)amino]-2-oxo-5-thiophen-2-yl-2H-pyridin-1-yl}-3-(4-chlorophenyl)propionic acid]	27 µM	51.4 µM	6.4 µM
O=C(Nc1cc(-c2ccc(F)cc2)cn(C(Cc2ccc(Cl)cc2)C(=O)O)c1=O)c1ccc(Oc2ccccc2)cc1 (stereo not drawn) [Compound 51, 3-(4-Chlorophenyl)-2-[5-(4-fluorophenyl)-2-oxo-3-(4-phenoxybenzoylamino)-2H-pyridin 1-yl]propionic acid]	> 100 µM	> 100 µM	4.9 µM
CN(C)c1ccc(-c2cc(NC(=O)c3ccc(Oc4ccccc4)cc3)c(=O)n(C(Cc3ccc(Cl)cc3)C(=O)O)c2)cc1 (stereo not drawn) [Compound 53, 3-(4-Chlorophenyl)-2-[5-(4-dimethylaminophenyl)-2-oxo-3-(4-phenoxy-benzoylamino)-2H-pyridin-1-yl]propionic acid]	> 100 µM	49 µM	3.6 µM
